Test results taken from US7947854B2, “Bis-cationic compounds and use thereof” (The University of Sydney, priority 2003, dated 2011).
“And” between values parts separate entries of the source, which are not always exact repeats. Equal entries are not always repeated.

What was measured:
[1] = test system: secreted phospholipase B (PLB activity); experiment: Radiometric assay, secreted PLB activity; format: biochemical, Cryptococcus neoformans H99; settings: for PLB, percentage inhibition of activity: Secretory Cryptococcal H99 Phospholipase
Summary of the method: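 Secreted enzyme was taken from cell-free supernatant of Cryptococcus isolate H99 cells incubated 24 h at 37° C. Reactions at 37° C, pH 4.0 imidazole acetate, used 800 μM DPPC with [14C]-dipalmitoyl PC and 1 μg protein for 22 min. PLB was measured as radiolabelled PC loss by TLC, with inhibition expressed versus inhibitor-free control; compounds were tested at 25 and 250 μM, then 2.5 and 0.25 μM.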

[2] = test system: secreted phospholipase B (LPL/LPTA activities); experiment: Radiometric assay, secreted LPL and LPTA activities (Lyso assay); format: biochemical, Cryptococcus neoformans H99
Protocol: Fungal isolates and media. […] Isolate H99 was kindly supplied by Dr. Gary Cox (Duke University Medical Center, Durham, N.C., USA), and subcultured onto Sabouraud dextrose agar (SDA) at 30° C.
Preparation of supernatants containing secreted phospholipase activities. Isolate H99 was grown to confluence on SDA in 16 cm diameter Petri dishes for 72 h at 30° C. in air. Cells scraped from 10-20 dishes were washed sequentially with isotonic saline and imidazole buffer (10 mM imidazole, 2 mM CaCl2, 2 mM Mg Cl2, 56 mM D-Glucose, made up in isotonic saline, pH 5.5), resuspended in a volume of this buffer of about 10% of the cell volume, and incubated for 24 h at 37° C. The cell-free supernatant was separated by centrifugation as previously described and stored at −70° C.
(§1) Secreted LPL and LPTA activities were measured simultaneously in a reaction mixture containing 1-[^14C]palmitoyl lyso-PC (25,000 dpm) and carrier lyso-PC (final concentration 200 μM) in assay buffer. The reaction time was […] with 1 μg of total protein and LPL activity was measured by the rate of loss of 1-[^14C]palmitoyl lyso-PC with release of radiolabelled fatty acids. LPTA activity was estimated from the rate of formation of radiolabelled PC.
All reactions were terminated by adding 0.5 mL of chloroform:methanol (2:1 v/v). The reaction products were extracted by the method as disclosed in Bligh, E. C. and W. J. Dyer. 1959 ‘A rapid method of total lipid extraction and purification.’ Can. J. Biochem. Physiol. 37:911-917, separated by TLC and quantified as previously described. In the case of PLC activity, the TLC plates were developed in petroleum ether (BP 60-80° C.): diethyl ether: acetic acid (90:15:1, v/v/v) instead of chloroform:methanol:water (65:25:4, v/v/v).
Preparation of inhibitors and use in assays. The following compounds were tested (for structures, see FIG. 2): compound 1, 1,12-bis(tributylphosphonium)dodecane dibromide (Fluka AG, Buchs, Switzerland); compound 2, 1,10-bis(tributylammonium)-decane dibromide; compound 3, 1,12-bis(tributylammonium)do-decane dibromide (both synthesised in-house); compound 4, 1,10-bis(trimethylammonium)decane dibromide [“decamethonium”] (Sigma, St. Louis Mo., USA). All compounds were prepared as stock solutions of 700 μM in assay buffer containing 5 mM EDTA, which was then diluted serially with buffer to obtain solutions of 70, 7, 0.7 and 0.07 μM. In each assay, 45 μL of these solutions was used, and the final volume of 125 μL was made up of substrate, enzyme and buffer. The radiometric assay was carried out as above. Inhibition was calculated as the percent of substrates (DPPC or Lyso-PC) remaining in the case of PLB and LPL activities, or of DPPC produced, in the case of the LPTA activity. The amounts converted, or produced, in the inhibitor-free control were normalised to 100%, and the inhibition calculated against it. All assays were done in triplicate.
Under these conditions only PLB, LPL and LPTA activities (both secreted and cell-associated) were measured. Initially, compounds deemed to be potential inhibitors were assayed at 25 and 250 μM. Those showing some inhibition were then also assayed at 2.5 and 0.25 μM.

[3] = test system: Candida albicans ATCC 10231; experiment: Antifungal susceptibility testing, microdilution MIC; format: cell-based; settings: Candida albicans, ATCC10231
Summary of the method: (§2)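 Standard microdilution method, run in duplicate, using serial dilutions of cationic compounds.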

[4] = test system: Cryptococcus neoformans ATCC 90112; experiment: as above; format: cell-based; settings: Cryptococcus neoformans, ATCC90112
Summary of the method: as §2

[5] = test system: MRSA (methicillin resistant S. aureus); experiment: In vitro antibacterial activity, NCCLS M7-A6; format: cell-based; settings: Staphylococcus aureus, read-out: MIC MRSA (methicillin resistant S. aureus)
Protocol: (§3) Two bis-cationic compounds were tested for antibacterial activity. The assay used was that published by the National Committee for Clinical Laboratory Standards. 2003. Methods for Dilution Antimicrobial Susceptibility Tests for Bacteria That Grow Aerobically: Approved Standard—Sixth Edition. NCCLS document M7-A6. Villanova, Pa., USA.

[6] = test system: Pseudomonas ariginosa 122; experiment: In vitro antibacterial activity, NCCLS M7-A6; format: cell-based
Protocol: as §3

[7] = test system: VRE (Vancomycin resistant Enterococcus); experiment: In vitro antibacterial activity, NCCLS M7-A6; format: cell-based
Protocol: as §3

[8] = test system: Aspergillus flavus ATCC 204 304; experiment: In vitro antifungal activity, filamentous fungi, NCCLS M38-A; format: cell-based; settings: Aspergillus flavus, ATCC204
From the text: (§4) The assay used for filamentous fungi (Aspergillus; Scedosporium; Fusarium) was that published by the National Committee for Clinical Laboratory Standards. 2002. Reference Method for Broth Dilution Antifungal Susceptibility Testing of Filamentous Fungi: Approved Standard. NCCLS document M38-A.Villanova, Pa., USA.

[9] = test system: Aspergillus fumigatus ATCC 204 305; experiment: as above; format: cell-based; settings: Aspergillus fumigatus, ATCC204
From the text: as §4

[10] = test system: Aspergillus terreus ATCC 03-232-378; experiment: as above; format: cell-based; settings: Aspergillus terreus, ATCC03
From the text: as §4

[11] = test system: Fusarium solani 04-132-4207; experiment: as above; format: cell-based; settings: Fusarium solani, 041324207
From the text: as §4

[12] = test system: Scedosporium apiospermum 1-003-056; experiment: as above; format: cell-based; settings: Scedosporium apiospermum, 1003056
From the text: as §4

[13] = test system: Scedosporium prolificans 1-003-040; experiment: as above; format: cell-based; settings: Lomentospora prolificans, 1003040
From the text: as §4

[14] = test system: Candida albicans ATCC 10231; experiment: In vitro antifungal activity, yeasts, NCCLS M27-A; format: cell-based; settings: Candida albicans, ATCC10231; Table 9
From the text: (§5) The assay used for yeasts (Candida; Cryptococcus) is that of the National Committee for Clinical Laboratory Standards. 1997. Reference Method for Broth Dilution Antifungal Susceptibility Testing of Yeasts: Approved Standard. NCCLS document M27-A.Villanova, Pa., USA as published in Ghannoum, M. A., A. S. Ibrahim, Y. Fu, M. C. Shafiq, J. E Edwards, Jr. and R. S. Criddle. 1992. Susceptibility testing of Cryptococcus neoformans: A microdilution technique. J. Clin. Microbiol. 30:2881-2886.

[15] = test system: Cryptococcus neoformans ATCC 90112; experiment: In vitro antifungal activity, yeasts, NCCLS M27-A; format: cell-based; settings: Cryptococcus neoformans, ATCC90112; Table 9
From the text: as §5

[16] = biological target: T1, Porcine pancreatic phospholipase A2 (Sus scrofa, UniProt P00592); experiment: Pancreatic phospholipase assay; format: biochemical; settings: read-out: ppPLA2, percentage inhibition of activity
T1 construct: purchased Sigma, St. Louis MO, USA
Protocol: Pancreatic phospholipase assay. Porcine pancreatic phospholipase A2 suspension in 3.2M ammonium sulfate (2.9 mg protein/mL, Sigma St.Louis Mo., USA) was used. One part of well mixed enzyme suspension was added to 4 parts of buffer (10 mM Tris/HCl, pH 8.2; 10 mM CaCl2. Activity and inhibition by test compounds was then measured by the radiometric method described in Example 2 for fungal PLB activity. However, 25 μL enzyme solution was used, and the reaction time was 1 hour. These conditions result in ˜60% substrate conversion in the inhibitor-free control.

[17] = test system: C. neoformans strain H99 phospholipases; experiment: Inhibition of C. neoformans strain H99 phospholipases (all enzymes and activities); format: biochemical, Cryptococcus neoformans H99
Protocol: Radiometric assay method for phospholipases. Enzyme activities were measured as described previously in a final volume of 125 μL at 37° C. For the determination of secreted PLB activity, carrier dipalmitoyl phosphatidylcholine (DPPC, final concentration 800 μM) and 1,2-di[1-^14C] palmitoyl phosphatidylcholine (20,000 dpm) were dried under nitrogen and suspended in 125 mM imidazole acetate buffer (assay buffer, pH 4.0) by sonication using a Branson 450 sonifier. The reaction time was 22 min, using 1 μg total protein and PLB activity was determined by the rate of decrease of the radiolabelled PC substrate, with appearance of the label in free fatty acid. […] These activities were measured by the appearance of radiolabel from PC in Lyso PC, diacylglycerol and phosphatidic acid, respectively.
as §1, with “LPTA activity was estimated from the rate of formation of radiolabelled PC.” left out
All reactions were terminated by adding 0.5 mL of chloroform:methanol (2:1 v/v). […] 37:911-917, separated by TLC and quantified as previously described. […]

[18] = Table 7, read-out: MIC (μM) C. alb. (10231)
[19] = Table 7, read-out: MIC (μM) Crypto. (ATCC 90112)

T1 sequence (P00592 23-146): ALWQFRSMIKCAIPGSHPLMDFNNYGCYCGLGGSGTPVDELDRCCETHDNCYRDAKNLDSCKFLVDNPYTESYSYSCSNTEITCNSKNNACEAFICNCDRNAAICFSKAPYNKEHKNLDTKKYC

SMILES: CCCC[N+](CCCC)(CCCC)CCCCCCCCCCCCCCCC[N+](CCCC)(CCCC)CCCC [1,16-bis-(tributylammonium)hexadecane]
- PLB assay (% inhibition) ([1]; 25 μM): 48%
- PLB assay (% inhibition) ([1]; 250 μM): 62%
- Lyso assay (% inhibition) LPL ([2]; 25 μM): 5%
- Lyso assay (% inhibition) LPTA ([2]; 25 μM): 15%
- Lyso assay (% inhibition) LPL ([2]; 250 μM): 10%
- Lyso assay (% inhibition) LPTA ([2]; 250 μM): 6%
- MIC [3, 18]: 5.5 µM
- MIC [4, 19]: 2.2 µM
- MIC [5]: 5 µg/mL and 11 µM
- MIC [6]: 106 µg/mL and 160 µM
- MIC [7]: 3.6 µg/mL and 5.5 µM
- MIC [8]: 14.6 µg/mL and 22 µM
- MIC [9]: 7.3 µg/mL and 11 µM
- MIC [10]: 7.3 µg/mL and 11 µM
- MIC [11]: 14.6 µg/mL and 22 µM
- MIC [12]: 3.6 µg/mL and 5.5 µM
- MIC [13]: 7.3 µg/mL and 11 µM
- MIC [14]: 7.2 µg/mL and 11 µM
- MIC [15]: 3.6 µg/mL and 5.5 µM

SMILES: C[N+](C)(C)CCCCCCCCCC[N+](C)(C)C [Compound 4, 1,10-bis(trimethylammonium)decane dibromide, reference compound]
- PLB assay (% inhibition) ([1]; 0.25 μM): 250 μM = 0% 25 μM = 0% 2.5 μM = 0% 0.25 μM = 0%
- PLB assay (% inhibition) ([1]; 2.5 μM): 250 μM = 0% 25 μM = 0% 2.5 μM = 0% 0.25 μM = 0%
- PLB, percentage inhibition of activity ([1]; 2.5 μM): 0%
- PLB assay (% inhibition) ([1]; 25 μM): 250 μM = 0% 25 μM = 0% 2.5 μM = 0% 0.25 μM = 0%
- PLB, percentage inhibition of activity ([1]; 25 μM): 0%
- PLB assay (% inhibition) ([1]; 250 μM): 250 μM = 0% 25 μM = 0% 2.5 μM = 0% 0.25 μM = 0%
- PLB, percentage inhibition of activity ([1]; 250 μM): 0%
- Lyso assay (% inhibition) LPL ([2]; 0.25 μM): 250 μM = 0% 25 μM = 0% 2.5 μM = 0% 0.25 μM = 0%
- Lyso assay (% inhibition) LPTA ([2]; 0.25 μM): 250 μM = 0% 25 μM = 0% 2.5 μM = 0% 0.25 μM = 0%
- Lyso assay (% inhibition) LPL ([2]; 2.5 μM): 250 μM = 0% 25 μM = 0% 2.5 μM = 0% 0.25 μM = 0%
- Lyso assay (% inhibition) LPTA ([2]; 2.5 μM): 250 μM = 0% 25 μM = 0% 2.5 μM = 0% 0.25 μM = 0%
- Lyso assay (% inhibition) LPL ([2]; 25 μM): 250 μM = 0% 25 μM = 0% 2.5 μM = 0% 0.25 μM = 0%
- Lyso assay (% inhibition) LPTA ([2]; 25 μM): 250 μM = 0% 25 μM = 0% 2.5 μM = 0% 0.25 μM = 0%
- Lyso assay (% inhibition) LPL ([2]; 250 μM): 250 μM = 0% 25 μM = 0% 2.5 μM = 0% 0.25 μM = 0%
- Lyso assay (% inhibition) LPTA ([2]; 250 μM): 250 μM = 0% 25 μM = 0% 2.5 μM = 0% 0.25 μM = 0%
- inhibition at 2.5 µM [16]: 0%
- inhibition at 25 µM [16]: 0%
- inhibition at 250 µM [16]: 0%
- enzyme (phospholipase) inhibition, in words [17]: neither enzyme inhibition
- MIC ([3]; Table 6, no visible growth after 48 h at 35° C., read-out: MIC C. albicans ATCC 10231): > 350 µM
- MIC [3, 18]: ≥ 350 µM
- MIC ([4]; Table 6, no visible growth after 72 h at 35° C., read-out: MIC C. neof. ATCC 90112): 88 µM
- MIC [4, 19]: ≥ 350 µM
